Assay results from patent US20260103465A1, “GLYCOGEN SYNTHASE KINASE 3 INHIBITORS AND USES THEREOF” (The Broad Institute, Inc., priority 2023, published 2026).
Where two headings read alike, the source gives them in different places.

Columns and labels:
[1] = tested on: MDR1-MDCK cell monolayers; test: MDR1/MDCK permeability assay; assay type: in vitro ADME; conditions: for MDCK Permeability (MDR1-MDCK); Mean; Papp(A-B) (10^−6 cm/s): A to B; for MDCK Permeability (MDR1-MDCK); Mean; Papp(B-A) (10^−6 cm/s): B to A; for MDCK Permeability (MDR1-MDCK); Mean; P. Ratio(B-A/A-B) Efflux Ratio / MIDCK Permeability (MDR1-MDCK); Mean; P. Ratio(B-A/A-B) Efflux Ratio: Papp B-A/A-B
Text: The MDR1/MDCK assay is run at WuXi and Absorption Systems. This assay is used to determine the blood-brain barrier (BBB) penetration potential of a test compound using MDR1-MDCK cell monolayers. Catalog number EA203.
• The percent recovery of the test compound from the Transwell® wells containing MDR1-MDCK cell monolayers • The apparent permeability (Papp) in both directions • The efflux ratio (Papp B to A)/(Papp A to B) • The blood-brain barrier penetration potential classification: • High when • Papp A to B≥3.0×10^−6 cm/s, and efflux<3.0 • Moderate when • Papp A to B≥3.0×10^−6 cm/s, and 10>efflux≥3.0 • Low when either • Papp A to B≥3.0×10^−6 cm/s, and […], or when • Papp A to B<[…].
• Test compound at 5 μM in HBSSg with maximum DMSO concentration not greater than 1%.
• Confluent monolayers of MDR1-MDCK cells, 7 to 11 days old.
• Receiver well with 1% BSA in modified Hanks buffer (HBSSg) • Apical and basolateral side at pH 7.4 • Dose two monolayers in each direction (N=2) • Dose apical side for (A to B) assessment • Dose basolateral side for (B to A) assessment • Sample both apical and basolateral sides at 120 minutes • Determine the concentrations of test compound using a generic LC-MS/MS method with a minimum 4 point calibration curve.
• The quality of the cell monolayer batch is verified using control compounds before monolayers are released for use • The quality of each monolayer used in the assay is verified by a TEER measurement and by calculating the Papp for a control compound.

[2] = biological target: T1, GSK3b (GST-full length GSK3b) (Homo sapiens, UniProt P49841); test: GSK3b TR-FRET kinase inhibition assay; assay type: biochemical
T1 construct: GST-full length GSK3b: [SignalChem G08-9G]; purchased SignalChem G08-9G
Outline: (§1)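 IC50 derived from normalized 665/615 TR-FRET signal (Tb anti-pSer641 antibody, streptavidin-d2), read after EDTA stop. Reaction: 1 nM GST-full-length enzyme, 30 min compound pre-incubation, 100 min at ambient temperature in Tris pH 7.5 with 1% DMSO, 200 nM biotinylated primed glycogen synthase peptide, ATP 2 μM to 1 mM.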

[3] = biological target: T2, GSK3a (GST-full length GSK3a) (Homo sapiens, UniProt P49840); test: GSK3a TR-FRET kinase inhibition assay; assay type: biochemical
T2 construct: GST-full length GSK3a [SignalChem G08-10G]; purchased SignalChem G08-10G
Outline: as §1

[4] = Human liver microsomal stability; assay type: in vitro ADME; conditions: human liver microsomes
Protocol: Stability of compound (5 μL of a 10 mM DMSO solution) in human liver microsomes was tested in duplicate by incubating compound at 1 μM for 60 minutes at 37° C. Compound level at 60 minutes was compared to level at 0 minutes, and percent remaining was calculated. Order by selecting Microsomal Stability in Prometheus, checking boxes for desired species. Assay Controls: microsomes with NADPH without compound-matrix interference. Microsomes plus compound without NADPH—non-enzymatic instability.

[5] = 2 μM ATP, read-out: GSK3β TR-FRET 2 μM ATP GMean IC50
[6] = 1 mM ATP, Table 4, read-out: GSK3β TR-FRET 1 mM ATP GMean IC50
[7] = 4 μM ATP, read-out: GSK3α TR-FRET 4 μM ATP GMean IC50
[8] = 1 mM ATP, Table 4, read-out: GSK3α TR-FRET 1 mM ATP GMean IC50
[9] = 10 μM ATP, read-out: GSK3b 10 μM ATP Average IC50
[10] = 100 μM ATP, read-out: GSK3b 100 μM ATP Average IC50
[11] = 1 mM ATP, Table 3, read-out: GSK3b TR-FRET 1 mM ATP Average IC50
[12] = 10 μM ATP, read-out: GSK3a 10 μM ATP Average IC50
[13] = 100 μM ATP, read-out: GSK3a 100 μM ATP Average IC50
[14] = 1 mM ATP, Table 3, read-out: GSK3a TR-FRET 1 mM ATP Average IC50

T1 sequence (P49841 whole entry): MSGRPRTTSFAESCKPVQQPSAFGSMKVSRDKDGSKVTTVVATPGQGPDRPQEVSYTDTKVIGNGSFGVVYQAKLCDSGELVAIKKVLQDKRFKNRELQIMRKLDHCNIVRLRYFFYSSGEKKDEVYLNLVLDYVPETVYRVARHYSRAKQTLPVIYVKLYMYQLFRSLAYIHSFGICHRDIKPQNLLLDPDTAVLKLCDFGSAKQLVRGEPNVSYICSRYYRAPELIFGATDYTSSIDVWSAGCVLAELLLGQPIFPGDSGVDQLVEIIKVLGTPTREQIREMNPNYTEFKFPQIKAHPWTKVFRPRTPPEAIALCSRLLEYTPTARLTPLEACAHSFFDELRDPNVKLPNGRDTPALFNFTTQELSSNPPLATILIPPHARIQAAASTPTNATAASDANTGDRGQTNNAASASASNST
T2 sequence (P49840 whole entry): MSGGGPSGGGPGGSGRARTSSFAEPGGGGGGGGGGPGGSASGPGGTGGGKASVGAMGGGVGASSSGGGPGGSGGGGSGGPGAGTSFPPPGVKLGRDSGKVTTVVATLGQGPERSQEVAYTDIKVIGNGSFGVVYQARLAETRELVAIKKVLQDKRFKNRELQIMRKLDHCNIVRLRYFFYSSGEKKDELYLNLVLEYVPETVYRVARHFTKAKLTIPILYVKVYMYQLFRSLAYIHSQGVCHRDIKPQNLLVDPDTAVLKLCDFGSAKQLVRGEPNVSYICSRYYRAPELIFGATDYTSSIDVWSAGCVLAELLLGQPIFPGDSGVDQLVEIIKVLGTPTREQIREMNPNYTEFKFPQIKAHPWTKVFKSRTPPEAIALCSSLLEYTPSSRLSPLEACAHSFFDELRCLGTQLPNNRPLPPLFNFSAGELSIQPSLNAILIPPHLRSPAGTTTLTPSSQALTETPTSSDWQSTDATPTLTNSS

SMILES	MDCK Permeability (MDR1-MDCK); Mean; Papp(A-B) (10^−6 cm/s) ([1]; Table 4)	MDCK Permeability (MDR1-MDCK); Mean; Papp(B-A) (10^−6 cm/s) ([1]; Table 4)	MDCK Permeability (MDR1-MDCK); Mean; P. Ratio(B-A/A-B) Efflux Ratio ([1]; Table 4)	IC50 [2, 5]	IC50 [2, 6]	IC50 [3, 7]	IC50 [3, 8]	Microsome Stability (Human) (DMPK_BIIB); Mean; in vitro t1/2 ([4]; Table 4)	MDCK Permeability (MDR1-MDCK); Mean; Papp(A-B) (10^−6 cm/s) ([1]; Table 3)	MDCK Permeability (MDR1-MDCK); Mean; Papp(B-A) (10^−6 cm/s) ([1]; Table 3)	MIDCK Permeability (MDR1-MDCK); Mean; P. Ratio(B-A/A-B) Efflux Ratio ([1]; Table 3)	IC50 [2, 9]	IC50 [2, 10]	IC50 [2, 11]	IC50 [3, 12]	IC50 [3, 13]	IC50 [3, 14]	Microsome Stability (Human) (DMPK_BIIB); Mean; in vitro t1/2 ([4]; Table 3)
CCC1(c2ccccc2)C2=C(CC(C)(C)CC2=O)Nc2ncccc21 (single isomer, unassigned) [102 A]	8.7 10^−6 cm/s	26 10^−6 cm/s	2.9	≤ 100 nM	5000 to 20000 nM	≤ 100 nM	1000 to 5000 nM	9.1 min	–	–	–	–	–	–	–	–	–	–
CCC1(c2ccccc2)C2=C(CC(C)(C)CC2=O)Nc2ncccc21 (single isomer, unassigned) [102 B]	6.7 10^−6 cm/s	29 10^−6 cm/s	4.3	> 5000 nM	–	> 5000 nM	–	1.2 min	–	–	–	–	–	–	–	–	–	–
CCC1(c2cccc(-c3ccnc(C)c3C)c2)C2=C(CC(C)(C)CC2=O)Nc2ncccc21 (single isomer, unassigned) [147 B]	8.1 10^−6 cm/s	31 10^−6 cm/s	3.8	≤ 100 nM	1000 to 5000 nM	≤ 100 nM	100 to 1000 nM	14 min	–	–	–	–	–	–	–	–	–	–
CC1(C)CC(=O)C2=C(C1)Nc1ncccc1C2(C)c1ccccc1 (single isomer, unassigned) [Compound 101A]	–	–	–	–	–	–	–	–	30 10^−6 cm/s	22 10^−6 cm/s	0.72	≤ 100 nM	100 to 1000 nM	1000 to 5000 nM	≤ 100 nM	100 to 1000 nM	1000 to 5000 nM	37 min
CCC1(c2ccccc2)C2=C(CC(C)(C)CC2=O)Nc2ncccc21 (single isomer, unassigned) [Compound 102A]	–	–	–	–	–	–	–	–	22 10^−6 cm/s	19 10^−6 cm/s	0.87	≤ 100 nM	100 to 1000 nM	1000 to 5000 nM	≤ 100 nM	100 to 1000 nM	1000 to 5000 nM	14 min
CC1(C)CC(=O)C2=C(C1)Nc1ncc(F)cc1C2(C)c1ccccc1 (single isomer, unassigned) [Compound 107B]	–	–	–	–	–	–	–	–	30 10^−6 cm/s	18 10^−6 cm/s	0.61	–	–	1000 to 5000 nM	–	–	1000 to 5000 nM	94 min
CCC1(c2ccccc2)C2=C(CC3(CCC3)CC2=O)Nc2ncccc21 (single isomer, unassigned) [Compound 110A]	22 10^−6 cm/s	31 10^−6 cm/s	1.4	–	–	–	–	5.4 min	–	–	–	–	–	5000 to 20000 nM	–	–	1000 to 5000 nM	–
CCC1(c2ccccc2)C2=C(CC3(CCC3)CC2=O)Nc2ncccc21 (single isomer, unassigned) [Compound 110B]	13 10^−6 cm/s	27 10^−6 cm/s	2.1	–	–	–	–	1.7 min	–	–	–	–	–	–	–	–	–	–
CCC1(c2ccccc2)C2=C(CC(C)(C)CC2=O)Nc2ncc(F)cc21 (single isomer, unassigned) [Compound 114A]	10 10^−6 cm/s	20 10^−6 cm/s	2.0	–	–	–	–	37 min	23 10^−6 cm/s	16 10^−6 cm/s	0.68	≤ 100 nM	≤ 100 nM	1000 to 5000 nM	≤ 100 nM	≤ 100 nM	100 to 1000 nM	49 min
CCC1(c2ccccc2)C2=C(CC(C)(C)CC2=O)Nc2ncc(F)cc21 (single isomer, unassigned) [Compound 114B]	12 10^−6 cm/s	24 10^−6 cm/s	2.1	–	–	–	–	1.7 min	–	–	–	–	–	–	–	–	–	–
CC1(C)CC(=O)C2=C(C1)Nc1ncc(F)c(C#N)c1C2(C)c1ccccc1 (single isomer, unassigned) [Compound 121A]	–	–	–	–	–	–	–	–	22 10^−6 cm/s	63 10^−6 cm/s	2.9	–	–	≤ 100 nM	–	–	≤ 100 nM	–
CC1(C)CC(=O)C2=C(C1)Nc1nccc(C(F)(F)F)c1C2(C)c1ccccc1 (single isomer, unassigned) [Compound 127A]	–	–	–	–	–	–	–	–	17 10^−6 cm/s	8.7 10^−6 cm/s	0.50	–	–	100 to 1000 nM	–	–	100 to 1000 nM	8.3 min
CCC1(c2ccccc2)C2=C(CC(C)(C)CC2=O)Nc2ncc(C(F)(F)F)cc21 (single isomer, unassigned) [Compound 133B]	11 10^−6 cm/s	16 10^−6 cm/s	1.5	–	–	–	–	73 min	–	–	–	–	–	–	–	–	–	–
CC1(C)CC(=O)C2=C(C1)Nc1ncc(F)cc1C2(C)c1cccc(S(C)(=O)=O)c1 (single isomer, unassigned) [Compound 139A]	–	–	–	–	–	–	–	–	0.52 10^−6 cm/s	75 10^−6 cm/s	144	–	–	≤ 100 nM	–	–	≤ 100 nM	–
